The values that follow come from PubChem BioAssay AID328 (DTP/NCI, 2004).

Molecules are shown by their SMILES. Several values for one entry are separate records, joined by “and”; a condition that tells them apart may be missing. Equal values may be shown once. Toxic doses and inconclusive results are not listed.

The assay concerns BDF1 mice, P388 leukemia ip, median survival T/C. Kind of assay: NCI In Vivo Anticancer Drug Screen. Data for tumor model P388 Leukemia (intraperitoneal) in B6D2F1 (BDF1) mice. Conditions: endpoint: median survival time, higher = longer survival. An outline of the steps:
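Reported as T/C, where T is the survival measurement in dosed animals and C the same measurement in vehicle controls.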

[1] abbreviates: dose: 100.0 mg/kg/injection, schedule: Q01DX009 (ip), vehicle: saline with Tween-80.
Setting [2] is: dose: 200.0 mg/kg/injection, schedule: Q01DX009 (ip), vehicle: saline with Tween-80.
The mark [3] stands for this setting: dose: 400.0 mg/kg/injection, schedule: Q01DX009 (ip), vehicle: saline with Tween-80.
[4] abbreviates: dose: 50.0 mg/kg/injection, schedule: Q04DX003 (ip), vehicle: Klucel (hydroxypropylcellulose) (HPC).
Setting [5] is: dose: 100.0 mg/kg/injection, schedule: Q04DX003 (ip), vehicle: Klucel (hydroxypropylcellulose) (HPC).
[6] abbreviates: dose: 200.0 mg/kg/injection, schedule: Q04DX003 (ip), vehicle: Klucel (hydroxypropylcellulose) (HPC).
[7] abbreviates: dose: 25.0 mg/kg/injection, schedule: Q01DX009 (ip), vehicle: saline with Tween-80.
Setting [8] is: dose: 50.0 mg/kg/injection, schedule: Q01DX009 (ip), vehicle: saline with Tween-80.
Setting [9] is: dose: 100.0 mg/kg/injection, schedule: Q04DX003 (ip), vehicle: saline with Tween-80.
The mark [10] stands for this setting: dose: 200.0 mg/kg/injection, schedule: Q04DX003 (ip), vehicle: saline with Tween-80.
[11] abbreviates: dose: 400.0 mg/kg/injection, schedule: Q04DX003 (ip), vehicle: saline with Tween-80.
Setting [12] is: dose: 200.0 mg/kg/injection, schedule: Q04DX003 (ip), vehicle: saline.

As for `c1ccc(P(CCP(CCP(c2ccccc2)c2ccccc2)c2ccccc2)CCP(c2ccccc2)c2ccccc2)cc1` (stereo not drawn), the T/C reads like this: under setting [1], 90 % of control and 100 % of control; under setting [2], 110 % of control and 100 % of control; under setting [3], 100 % of control and 120 % of control.
`O=C(Nc1ccc2ncccc2c1)Nc1ccc2ncccc2c1`: the T/C (dose: 50.0 mg/kg/injection, schedule: Q01DX009 (ip), vehicle: Klucel (hydroxypropylcellulose) (HPC)) is 87 % of control; the T/C under setting [4] was 91 % of control; the T/C (dose: 100.0 mg/kg/injection, schedule: Q01DX009 (ip), vehicle: Klucel (hydroxypropylcellulose) (HPC)) is 95 % of control; the T/C under setting [5] was 95 % of control; the T/C under setting [6] is 91 % of control.
With `CC(C)=CCc1cc(O)ccc1O`, the T/C (dose: 6.25 mg/kg/injection, schedule: Q01DX009 (ip), vehicle: saline with Tween-80) is 108 % of control; the T/C under setting [7] was 112 % of control; the T/C under setting [8] is 101 % of control.
On to `O=C(O)C1(c2ccccc2)CC1`, for which the T/C under setting [1] was 109 % of control, the T/C under setting [2] was 90 % of control and the T/C under setting [3] is 90 % of control.
For `Cc1cc(C)c(B2OB(c3c(C)cc(C)cc3C)O2)c(C)c1`, the T/C under setting [4] is 95 % of control, the T/C under setting [5] was 100 % of control and the T/C under setting [6] was 95 % of control.
For the compound `Cc1oc(-c2ccccc2)nc1C(=O)Cl`, the T/C is, setting by setting: (dose: 100.0 mg/kg/injection, schedule: Q01DX001 (ip), vehicle: saline with Tween-80) 120 % of control; (dose: 200.0 mg/kg/injection, schedule: Q01DX001 (ip), vehicle: saline with Tween-80) 113 % of control; (dose: 400.0 mg/kg/injection, schedule: Q01DX001 (ip), vehicle: saline with Tween-80) 103 % of control.
For the compound `CCC1CC2CC(c3cc4c(cc3OC)N(C)C3C(O)(C(=O)OC)C(OC(C)=O)C5(CC)C=CCN6CCC43C65)c3[nH]c4ccccc4c3CCN(C1)C2` (stereo not drawn), the T/C is 181 % of control (dose: 0.03 mg/kg/injection, schedule: Q01DX009 (ip), vehicle: water); 100 % of control (dose: 0.06 mg/kg/injection, schedule: Q01DX009 (ip), vehicle: water); 100 % of control (dose: 0.12 mg/kg/injection, schedule: Q01DX009 (ip), vehicle: water); 90 % of control and 95 % of control (dose: 0.25 mg/kg/injection, schedule: Q01DX009 (ip), vehicle: water); 90 % of control (dose: 0.25 mg/kg/injection, schedule: Q04DX003 (ip), vehicle: water); 100 % of control and 104 % of control (dose: 0.5 mg/kg/injection, schedule: Q01DX009 (ip), vehicle: water). The T/C runs as follows: (dose: 0.5 mg/kg/injection, schedule: Q04DX003 (ip), vehicle: water) 95 % of control; (dose: 1.0 mg/kg/injection, schedule: Q01DX009 (ip), vehicle: water) 109 % of control; (dose: 1.0 mg/kg/injection, schedule: Q04DX003 (ip), vehicle: water) 95 % of control; (dose: 2.0 mg/kg/injection, schedule: Q01DX009 (ip), vehicle: water) 104 % of control; (dose: 4.0 mg/kg/injection, schedule: Q04DX003 (ip), vehicle: water) 95 % of control; (dose: 6.0 mg/kg/injection, schedule: Q04DX003 (ip), vehicle: water) 90 % of control. Moreover, the T/C is, setting by setting: (dose: 5.0 micrograms/kg/injection, schedule: Q01DX009 (ip), vehicle: water) 104 % of control; (dose: 10.0 micrograms/kg/injection, schedule: Q01DX009 (ip), vehicle: water) 102 % of control; (dose: 20.0 micrograms/kg/injection, schedule: Q01DX009 (ip), vehicle: water) 90 % of control; (dose: 40.0 micrograms/kg/injection, schedule: Q01DX009 (ip), vehicle: water) 100 % of control; (dose: 80.0 micrograms/kg/injection, schedule: Q01DX009 (ip), vehicle: water) 92 % of control.
As for `CC(=O)NS(=O)(=O)c1ccc(NC(=O)/C=C/C(=O)O)cc1`, the T/C under setting [9] is 104 % of control, the T/C under setting [10] was 118 % of control and the T/C under setting [11] is 104 % of control.
`COc1ccc(Cl)cc1N`: the T/C is 95 % of control under setting [8] and 91 % of control under setting [1].
Regarding `CCOC(=O)C1=C(C)NC(=O)NC1c1ccc(N=Cc2cc(Br)ccc2O)cc1` (stereo not drawn), the T/C (dose: 75.0 mg/kg/injection, schedule: Q01DX001 (ip), vehicle: saline with Tween-80) is 95 % of control; the T/C (dose: 150.0 mg/kg/injection, schedule: Q01DX001 (ip), vehicle: saline with Tween-80) is 90 % of control; the T/C (dose: 300.0 mg/kg/injection, schedule: Q01DX001 (ip), vehicle: saline with Tween-80) is 90 % of control.
Take `CNc1cccnc1/C=N/NC(N)=S`: the T/C reads like this: under setting [8], 194 % of control; under setting [1], 181 % of control.
For the compound `O=C(CC(=O)Oc1ccc(Cl)cc1Cl)Oc1ccc(Cl)cc1Cl`, the T/C was 100 % of control under setting [1], 100 % of control under setting [2] and 100 % of control under setting [3].
Regarding `O=[N+]([O-])c1ccc(NCc2ccccc2)nc1`, the T/C reads like this: under setting [7], 107 % of control; under setting [8], 109 % of control; under setting [1], 114 % of control.
In the case of `CCCNCCC(O)c1cc(C(F)(F)F)nc2c(C(F)(F)F)cccc12` (stereo not drawn), the T/C by setting is: under setting [7], 103 % of control; under setting [8], 111 % of control and 124 % of control; under setting [1], 111 % of control.
For the compound `Cc1cc(C)c(CCO)c(C)c1`, the T/C is, setting by setting: (dose: 0.37 mg/kg/injection, schedule: Q01DX009 (ip), vehicle: DMSO) 113 % of control; (dose: 0.75 mg/kg/injection, schedule: Q01DX009 (ip), vehicle: DMSO) 113 % of control; (dose: 1.5 mg/kg/injection, schedule: Q01DX009 (ip), vehicle: DMSO) 95 % of control; (dose: 3.0 mg/kg/injection, schedule: Q01DX009 (ip), vehicle: DMSO) 88 % of control and 109 % of control; (dose: 12.0 mg/kg/injection, schedule: Q01DX009 (ip), vehicle: DMSO) 92 % of control; (dose: 25.0 mg/kg/injection, schedule: Q04DX003 (ip), vehicle: DMSO) 88 % of control. The T/C (dose: 50.0 mg/kg/injection, schedule: Q04DX003 (ip), vehicle: DMSO) is 88 % of control.
With `CCOC(=O)C1CC=CCC1C(=O)OCC` (stereo not drawn), the T/C was 118 % of control (dose: 100.0 mg/kg/injection, schedule: Q04DX003 (ip), vehicle: saline); 118 % of control under setting [12]; 109 % of control (dose: 400.0 mg/kg/injection, schedule: Q04DX003 (ip), vehicle: saline).
For the compound `CCCCCCCCCCCCCCCCSCCCCCCCCCCCSCCCCCCCCCCCCCCCC`, the T/C is 90 % of control (dose: 25.0 mg/kg/injection, schedule: Q01DX001 (ip), vehicle: saline sonified) and 90 % of control (dose: 50.0 mg/kg/injection, schedule: Q01DX001 (ip), vehicle: saline sonified).
As for `Nc1nc(SCCc2ccccc2)c2[nH]cnc2n1`, the T/C under setting [1] was 109 % of control; the T/C under setting [9] was 104 % of control; the T/C under setting [2] was 100 % of control; the T/C under setting [10] is 100 % of control; the T/C under setting [3] is 90 % of control; the T/C under setting [11] was 104 % of control.
Take `C=CCc1ccccc1CNC(C)(C)CO`: the T/C reads like this: under setting [8], 103 % of control; under setting [1], 103 % of control.
Consider `CCCCOCN(COCCCC)c1cccc(Cl)c1`, for which the T/C is, setting by setting: under setting [8], 100 % of control; under setting [1], 106 % of control; under setting [2], 117 % of control.
As for `OC(CC1CCCCN1)c1cc2c(Cl)cc(Cl)cc2c2cc(C(F)(F)F)ccc12` (stereo not drawn), under setting [8], the T/C is 114 % of control.
With `[Br][Co][Br].[NH-]CC[NH-].[NH-]CC[NH-]`, the T/C under setting [12] was 109 % of control.
As for `NC(=O)c1ccc(C(N)=O)cc1`, the T/C reads like this: under setting [9], 100 % of control; under setting [10], 104 % of control; under setting [11], 100 % of control.
Turning to `C[N-]N(C)C(=O)[S-].C[N-]N(C)C(=O)[S-].C[N-]N(C)C(=O)[S-].[Co]`, the T/C under setting [9] is 105 % of control.
Regarding `CCCCCCCCCCNCCS`, the T/C (dose: 8.0 mg/kg/injection, schedule: Q01DX010 (ip), vehicle: carboxymethylcellulose (CMC)) was 105 % of control; the T/C (dose: 16.0 mg/kg/injection, schedule: Q01DX010 (ip), vehicle: carboxymethylcellulose (CMC)) is 110 % of control; the T/C (dose: 32.0 mg/kg/injection, schedule: Q01DX010 (ip), vehicle: carboxymethylcellulose (CMC)) is 105 % of control.
